Data set [1] concerns breast cancer cell line 4T1. The data set is described as follows: MTT assay, cytotoxicity on 4T1. In kind it is cell-based, mouse. The note with it: for GI50: Mus musculus, MTT, 72 h, mean of two independent determinations; for inhibition % at fixed concentration, 4T1 (printed in GI50 column): @100 nM; for TI (LO2/4T1): therapeutic index, GI50 LO2 / GI50 4T1. The method, then:
(§1) MTT assay was applied to verify the rationality of the molecular combination strategy. The cytotoxicity of the compounds was evaluated on lung cancer cell line A549, colon cancer cell line HCT-116, breast cancer cell line 4T1 and normal hepatocyte cell line LO2. Paclitaxel was used as a positive drug. […] The therapeutic index (TI) for LO2/HCT-116, LO2/A549 and LO2/4T1 of active compounds 4a, 4d, 13a, 17a, 17c and paclitaxel are shown in Table 2.
(§2) Cells were inoculated in 96-well plates (cell density 2 × 10^4 cells/well) followed by incubation for 24 h at 37 °C. Paclitaxel and target compounds were added to the corresponding well. Subsequently, the cultures were incubated for 72 h. After the MTT solution (50 µL, 2 mg/mL) was added to cultures, the plates were incubated for an additional 4 h. Purple colored formazan crystals were dissolved in 200 µL DMSO, and the absorbance was recorded at 570 nm using Synergy HT, Bio-Tek (Winooski, VT, USA).

The subject of data set [2] is normal hepatocyte cell line LO2. The data set is described as follows: MTT assay, cytotoxicity on normal cell LO2. In kind it is cell-based. The note with it: for inhibition % at fixed concentration, LO2 (printed in GI50 column): @2 μM; for GI50: Hepatocyte, MTT, 72 h, mean of two independent determinations. The method, then: as §1, §2
In general terms: Tetrazolium assays rely on reduction of a dye to a coloured formazan, in cell work by metabolically active cells.

The test system of data set [3] is lung cancer cell line A549. The data set is described as follows: MTT assay, cytotoxicity on A549. The data set is classed as cell-based, human. The note with it: for GI50: Homo sapiens, A549, MTT, 72 h, mean of two independent determinations; for TI (LO2/A549): therapeutic index, GI50 LO2 / GI50 A549. Here is the method:
as §1, §2

The subject of data set [4] is colon cancer cell line HCT-116. The data set is described as follows: MTT assay, cytotoxicity on HCT-116. The data set is classed as cell-based, human. The note with it: for GI50: Homo sapiens, HCT-116, MTT, 72 h, mean of two independent determinations; for TI (LO2/HCT-116): therapeutic index, GI50 LO2 / GI50 HCT-116. The method, then: as §1, §2
The nature of data set [5]: Liposome loading with copper ion gradients (encapsulation efficiency by HPLC). In kind it is physicochemical. As to conditions: copper ion gradient. From the text: Vyxeos® is a liposomal formulation of a fixed molar ratio (1:5) combination of the antineoplastic drugs daunorubicin (DN) and cytarabine (Cyt). Daunorubicin is subsequently actively encapsulated with high efficiency through complexation with intra-liposomal copper. The copper gluconate buffer forms a complex with daunorubicin at a ratio of 1:1 to 1:2 [25]. Referring to Vyxeos®, copper ion was selected as a complexed metal ion in the inner phase. […] Therefore, compound 4d was selected to investigate the effect of the anions on the loading efficiency. Among them, only the neutral gluconate copper was a suitable inner phase to facilitate the encapsulation of compound 4d (Table 3).
The reason for the stability of the neutral formulations was potentially due to the fact that PBA was effectively […] and interacted with copper more tightly in the neutral condition compared with the acidic condition. Thus, the neutral Cu-gluconate was selected as the inner phase. The concentration of copper ions was also investigated, showing that the higher the copper concentration, the higher the EE. Considering the safety of copper ions, 300 mM was chosen. […] The EE of compound 4d active loading liposome was more than 95% with copper ion gradient. Furthermore, we also evaluated the ATP and saccharides as remote gradients with the optimal formulation of copper ion gradients.
Blank liposomes were prepared for membrane hydration. HSPC, chol and DSPE-PEG2000 were dissolved using chloroform at a mass ratio of 3:1:0.02 and then spin-evaporated at 37 °C. The obtained film was then hydrated with 300 mM Cu-Glu (pH 7.4) at 65 °C for 30 min. The multi-layer vesicles were subsequently put into an extruder and passed through polycarbonate membranes with pore sizes of 400 nm, 200 nm and 100 nm 12 times at 65 °C containing 20 mM HEPES, 15 mM EDTA and 300 mM sucrose for removing the un-encapsulated Cu^2+, and then EDTA was removed with 20 mM HEPES and 300 mM sucrose buffer (pH 7.4, adjusted with triethylamine). Compound 4d was dissolved in DMSO and slowly added into the liposome at 65 °C for 30 min and then quenched in an ice bath for 5 min (the drug to lipid ratio was 1:10). The encapsulation efficiency and drug loading efficiency of compound 4d were determined using HPLC. The morphologies of liposomes were characterized using a transition electron microscope (TEM, Hitachi HT7700, Tokyo, Japan); then, their size, PDI and Zeta potential were measured using a Zetasizer Nano ZS90 (Malvern, UK).

Data set [6] can be described thus: Liposome loading with calcium acetate gradients. The data set is classed as physicochemical. As to conditions: sediment precipitated after loading. An excerpt:
Since boronic acid RB(OH)2 is not only a weak acid, but also a structure that can complex with copper ions, ATP and saccharides, we investigated whether different inner phases could be employed to encapsulate compounds (4a, 4d, 13a, 17a, 17c) with good therapeutic index.

Some results are limits rather than exact numbers.

Here are results for 16 compounds from paper PMC9694711, “Synthesis of Paclitaxel Derivatives for Remote Loading into Liposomes and Improved Therapeutic Effect” (Molecules, 2022).

By GI50 is commonly meant the concentration that inhibits growth by half. Turning to `CC(=O)OC12COC1CC(O)C1(C)C(=O)C(O)C3=C(C)C(OC(=O)C(OC(=O)CCC(=O)OCc4ccc(B(O)O)cc4)C(NC(=O)OC(C)(C)C)c4ccccc4)CC(O)(C(OC(=O)c4ccccc4)C21)C3(C)C` (stereo not drawn) [Compound 4b, 2’-O-[4-((4-boronobenzyl)oxy)-4-oxobutyryl]docetaxel], the GI50 in data set [1] stood at 54.7 nM.

For the compound `CC(=O)OC1C(=O)C2(C)C(O)CC3OCC3(OC(C)=O)C2C(OC(=O)c2ccccc2)C2(O)CC(OC(=O)C(OC(=O)OCCCCCB(O)O)C(NC(=O)c3ccccc3)c3ccccc3)C(C)=C1C2(C)C` (stereo not drawn) [Compound 10a, 2’-O-[5-boronopentyl carbonate]taxol], the concentration for 50% growth inhibition (GI50) in data set [1], in data set [3] and in data set [4] was greater than 100 nM each time. The “inhibition % at fixed concentration, LO2 (printed in GI50 column)” value in data set [2] is 32.81%@2 μM.

In the case of `CC(=O)OC1C(=O)C2(C)C(O)CC3OCC3(OC(C)=O)C2C(OC(=O)c2ccccc2)C2(O)CC(OC(=O)C(OC(=O)CCCCCCB(O)O)C(NC(=O)c3ccccc3)c3ccccc3)C(C)=C1C2(C)C` (stereo not drawn) [Compound 17e, 2’-O-[7-boronoheptanoyl]taxol], the GI50 in data set [1], in data set [3] and in data set [4] was greater than 100 nM throughout.

For the compound `CC(=O)OC12COC1CC(O)C1(C)C(=O)C(O)C3=C(C)C(OC(=O)C(OC(=O)CCCCCB(O)O)C(NC(=O)OC(C)(C)C)c4ccccc4)CC(O)(C(OC(=O)c4ccccc4)C21)C3(C)C` (stereo not drawn) [Compound 17g, 2’-O-[6-boronohexanoyl]docetaxel], the “inhibition % at fixed concentration, 4T1 (printed in GI50 column)” value (shortened to “inhibition % at fixed concentration, 4T1”) in data set [1] amounted to 35.83%@100 nM.

For `CC(=O)OC1C(=O)C2(C)C(O)CC3OCC3(OC(C)=O)C2C(OC(=O)c2ccccc2)C2(O)CC(OC(=O)C(OC(=O)OCCCCCCB(O)O)C(NC(=O)c3ccccc3)c3ccccc3)C(C)=C1C2(C)C` (stereo not drawn) [Compound 10b, 2’-O-[6-boronohexyl carbonate]taxol], the GI50 was greater than 100 nM in data set [1], 745 nM in data set [2] and greater than 100 nM in data set [4].

With `CC(=O)OC12COC1CC(O)C1(C)C(=O)C(O)C3=C(C)C(OC(=O)C(OC(=O)OCc4ccc(B(O)O)cc4)C(NC(=O)OC(C)(C)C)c4ccccc4)CC(O)(C(OC(=O)c4ccccc4)C21)C3(C)C` (stereo not drawn) [Compound 13b, 2’-O-[4-boronobenzyl carbonate] docetaxel], in data set [1], the concentration for 50% growth inhibition (GI50) came to 33.1 nM.

Consider `CC(=O)OC1C(=O)C2(C)C(O)CC3OCC3(OC(C)=O)C2C(OC(=O)c2ccccc2)C2(O)CC(OC(=O)C(OC(=O)CCCCB(O)O)C(NC(=O)c3ccccc3)c3ccccc3)C(C)=C1C2(C)C` (stereo not drawn) [Compound 17c, 2’-O-[5-boronopentanoyl]taxol], for which the “loading into liposomes, copper ion as complexed metal ion in the inner phase” value in data set [5] is “failed in loading into the liposomes”. The GI50 was 87.2 nM in data set [1], 1420 nM in data set [2], 44.8 nM in data set [3] and 6.38 nM in data set [4]. The “TI (LO2/4T1)” value in data set [1] came out at 16.3. Further, the “TI (LO2/A549)” value in data set [3] was found to be 31.6. Besides, the “TI (LO2/HCT-116)” value in data set [4] was determined as 222.1. In data set [6], the “encapsulation into liposomes by calcium acetate gradients” value is on record as “not feasible”.

For `CC(=O)OC1C(=O)C2(C)C(O)CC3OCC3(OC(C)=O)C2C(OC(=O)c2ccccc2)C2(O)CC(OC(=O)C(OC(=O)CCCB(O)O)C(NC(=O)c3ccccc3)c3ccccc3)C(C)=C1C2(C)C` (stereo not drawn) [Compound 17b, 2’-O-[4-boronobutanoyl]taxol], in data set [1], the “inhibition % at fixed concentration, 4T1” value stood at 17.89%@100 nM. Further, the “inhibition % at fixed concentration, LO2 (printed in GI50 column)” value in data set [2] stood at 38.06%@2 μM. The results for the GI50 in data set [3] and in data set [4] were 69.2 nM and 38.3 nM, respectively.

Consider `CC(=O)OC1C(=O)C2(C)C(O)CC3OCC3(OC(C)=O)C2C(OC(=O)c2ccccc2)C2(O)CC(OC(=O)C(OC(=O)OCc3ccc(B(O)O)cc3)C(NC(=O)c3ccccc3)c3ccccc3)C(C)=C1C2(C)C` (stereo not drawn) [Compound 13a, 2’-O-[4-boronobenzyl carbonate]taxol], for which the “loading into liposomes, copper ion as complexed metal ion in the inner phase” value in data set [5] is “failed in loading into the liposomes”. Further, the GI50 was 92.9 nM in data set [1], 972 nM in data set [2], 22.5 nM in data set [3] and 8.73 nM in data set [4]. For the same compound, the “TI (LO2/4T1)” value in data set [1] turned out to be 10.5. Moreover, the “TI (LO2/A549)” value in data set [3] is reported as 43.3. Moreover, in data set [4], the “TI (LO2/HCT-116)” value was determined as 111.3. Further, the “encapsulation into liposomes by calcium acetate gradients” value in data set [6] is given as “not feasible”.

`CC(=O)OC1C(=O)C2(C)C(O)CC3OCC3(OC(C)=O)C2C(OC(=O)c2ccccc2)C2(O)CC(OC(=O)C(OC(=O)c3ccc(B(O)O)cc3)C(NC(=O)c3ccccc3)c3ccccc3)C(C)=C1C2(C)C` (stereo not drawn) [Compound 6a, 2’-O-[4-boronobenzoyl]taxol]: the GI50 in data set [1], in data set [3] and in data set [4] was greater than 100 nM each time.

Regarding `CC(=O)OC12COC1CC(O)C1(C)C(=O)C(O)C3=C(C)C(OC(=O)C(OC(=O)c4ccc(B(O)O)cc4)C(NC(=O)OC(C)(C)C)c4ccccc4)CC(O)(C(OC(=O)c4ccccc4)C21)C3(C)C` (stereo not drawn) [Compound 6b, 2’-O-[4-boronobenzoyl]docetaxel], in data set [1], the GI50 is greater than 100 nM.

In the case of `CC(=O)OC12COC1CC(O)C1(C)C(=O)C(O)C3=C(C)C(OC(=O)C(OC(=O)CCCB(O)O)C(NC(=O)OC(C)(C)C)c4ccccc4)CC(O)(C(OC(=O)c4ccccc4)C21)C3(C)C` (stereo not drawn) [Compound 17f, 2’-O-[4-boronobutanoyl]docetaxel], the GI50 in data set [1] came to 14.5 nM.

Take `CC(=O)OC1C(=O)C2(C)C(O)CC3OCC3(OC(C)=O)C2C(OC(=O)c2ccccc2)C2(O)CC(OC(=O)C(OC(=O)CCSSCCC(=O)OCc3ccc(B(O)O)cc3)C(NC(=O)c3ccccc3)c3ccccc3)C(C)=C1C2(C)C` (stereo not drawn) [Compound 4e, 2’-O-[3-((3-((4-boronobenzyl)oxy)-3-oxopropyl)disulfaneyl)propionyl]taxol]: in data set [1], the concentration for 50% growth inhibition (GI50) was greater than 100 nM.

For the compound `CC(=O)OC1C(=O)C2(C)C(O)CC3OCC3(OC(C)=O)C2C(OC(=O)c2ccccc2)C2(O)CC(OC(=O)C(OC(=O)CCCCCB(O)O)C(NC(=O)c3ccccc3)c3ccccc3)C(C)=C1C2(C)C` (stereo not drawn) [Compound 17d, 2’-O-[6-boronohexanoyl]taxol], the GI50 in data set [1], in data set [3] and in data set [4] was greater than 100 nM in each case.

Consider `CC(=O)OC12COC1CC(O)C1(C)C(=O)C(O)C3=C(C)C(OC(=O)C(OC(=O)OCCCCCCB(O)O)C(NC(=O)OC(C)(C)C)c4ccccc4)CC(O)(C(OC(=O)c4ccccc4)C21)C3(C)C` (stereo not drawn) [Compound 10c, 2’-O-[6-boronohexyl carbonate] docetaxel], for which, in data set [1], the “inhibition % at fixed concentration, 4T1” value turned out to be 35.97%@100 nM. Moreover, in data set [2], the GI50 came out at 273 nM. Besides, in data set [4] (@100 nM), the “inhibition % at fixed concentration, HCT-116 (printed in GI50 column)” value turned out to be 55.66%@100 nM.

Consider `CC(=O)OC1C(=O)C2(C)C(O)CC3OCC3(OC(C)=O)C2C(OC(=O)c2ccccc2)C2(O)CC(OC(=O)C(OC(=O)CCCC(=O)OCc3ccc(B(O)O)cc3)C(NC(=O)c3ccccc3)c3ccccc3)C(C)=C1C2(C)C` (stereo not drawn) [Compound 4c, 2’-O-[5-((4-boronobenzyl)oxy)-5-oxopentanoyl]taxol], for which the GI50 in data set [1] is greater than 100 nM.
